This is an account of results in article PMC4899784, “LTP-1, a novel antimitotic agent and Stat3 inhibitor, inhibits human pancreatic carcinomas in vitro and in vivo” (Scientific Reports, 2016).

The target of experiment [1] is T1, tubulin (α/β-tubulin heterodimer) (Sus scrofa, UniProt P02550+P02554).
T1 construct: gene TUBA1A; with α/β-tubulin heterodimer
The experiment in a line: cell-free tubulin polymerization assay (absorbance at […] nm), inhibition. The class given is biochemical.

Experiment [2] has as its target T1, tubulin (α/β-tubulin heterodimer). The experiment in a line: cell-free tubulin polymerization assay (absorbance at […] nm), enhancement. The class given is biochemical.

T1 sequence (P02550 whole entry): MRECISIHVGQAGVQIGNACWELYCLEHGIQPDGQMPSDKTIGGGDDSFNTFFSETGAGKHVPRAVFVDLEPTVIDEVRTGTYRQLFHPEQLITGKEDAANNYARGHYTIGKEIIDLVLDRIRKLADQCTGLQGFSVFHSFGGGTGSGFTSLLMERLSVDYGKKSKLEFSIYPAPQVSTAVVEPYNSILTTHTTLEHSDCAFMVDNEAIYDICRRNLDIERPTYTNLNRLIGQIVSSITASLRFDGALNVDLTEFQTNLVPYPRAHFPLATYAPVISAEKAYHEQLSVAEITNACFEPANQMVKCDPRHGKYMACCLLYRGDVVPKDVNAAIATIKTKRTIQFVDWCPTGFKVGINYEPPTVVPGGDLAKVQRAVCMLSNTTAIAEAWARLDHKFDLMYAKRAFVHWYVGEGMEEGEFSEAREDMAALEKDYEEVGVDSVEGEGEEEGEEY
T1 sequence (P02554 whole entry): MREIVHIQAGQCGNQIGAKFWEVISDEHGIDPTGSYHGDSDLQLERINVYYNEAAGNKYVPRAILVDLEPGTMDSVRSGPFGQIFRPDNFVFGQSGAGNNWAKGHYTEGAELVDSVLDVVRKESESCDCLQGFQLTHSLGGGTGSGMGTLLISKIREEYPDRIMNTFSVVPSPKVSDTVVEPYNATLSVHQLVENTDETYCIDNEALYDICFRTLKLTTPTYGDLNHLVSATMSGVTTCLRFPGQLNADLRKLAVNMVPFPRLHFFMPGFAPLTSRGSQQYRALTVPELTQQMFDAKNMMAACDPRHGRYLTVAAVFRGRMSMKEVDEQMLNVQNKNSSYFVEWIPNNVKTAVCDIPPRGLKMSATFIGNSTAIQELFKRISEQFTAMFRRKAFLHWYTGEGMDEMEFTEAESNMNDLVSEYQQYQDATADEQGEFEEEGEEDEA

As for `COc1ccc(S(=O)(=O)Nc2ccccc2-c2ccc(C#N)cc2)cc1` [LTP-1], the “cell-free tubulin polymerization assay (absorbance at 340 nm), inhibition” value in experiment [1] is reported as “LTP-1 acted like vincristine, to inhibit tubulin polymerization in a concentration-dependent manner”.

Turning to `CC(=O)O[C@H]1C(=O)[C@@]2(C)[C@H]([C@H](OC(=O)c3ccccc3)[C@]3(O)C[C@H](OC(=O)[C@H](O)[C@@H](NC(=O)c4ccccc4)c4ccccc4)C(C)=C1C3(C)C)[C@]1(OC(C)=O)CO[C@@H]1C[C@@H]2O` [paclitaxel], the “cell-free tubulin polymerization assay (absorbance at 340 nm), enhancement” value in experiment [2] was “Paclitaxel enhanced microtubule assembly and mitotic spindle formation, whereas LTP-1 and vincristine disrupted microtubule formation (Fig. 2A)”.
